Holding throughout (assay type): functional, cell-based
One assay deals with MCF7. The assay is described as follows: Cytotoxicity against human MCF7 cells after 48 hrs by MTT assay. The note with it: MCF7, 48 h.
For a further assay, the system named is LNCaP. Nature of the assay: Cytotoxicity against human LNCAP cells after 48 hrs by MTT assay.
The nature of assay [1]: Cytotoxicity against human MDA231 cells after 48 hrs by MTT assay. The note with it: MDA-MB-231, 48 h.
The subject of another assay is PC-3. Nature of the assay: Cytotoxicity against human PC3 cells after 48 hrs by MTT assay. The conditions noted are these: PC-3, 48 h.
Another assay has as its system MIA PaCa-2. The assay is described as follows: Cytotoxicity against human MIAPaCa2 cells after 48 hrs by MTT assay. The note with it: MIA PaCa-2, 48 h.
Another assay deals with DU-145. Nature of the assay: Cytotoxicity against human DU145 cells after 48 hrs by MTT assay. The conditions noted are these: DU-145, 48 h.

On to `c1ccc(-c2nc(-c3c[nH]c4ccccc34)co2)cc1`, for which the IC50 was 131 µM with MCF7; 461 µM with LNCaP; 171 µM in assay [1]; 170 µM in the assay on PC-3; 113 µM in the assay on MIA PaCa-2; 167 µM with DU-145.

For `c1ccc2c(-c3coc(C4CCNCC4)n3)c[nH]c2c1`, the IC50 with MCF7 stood at 294 µM; in the assay with LNCaP it was 476 µM; in assay [1], 528 µM; in the assay on PC-3 it was 407 µM; with MIA PaCa-2, 230 µM; in the assay on DU-145, 381 µM.

`COc1cc(-c2nc(-c3c[nH]c4ccccc34)co2)ccc1O`: the 50% inhibitory concentration (IC50) amounted to 1000 µM in the assay with MCF7; 445 µM in the assay on LNCaP; 1000 µM in assay [1]; 303 µM in the assay with PC-3; 1000 µM in the assay on MIA PaCa-2; 175 µM in the assay with DU-145.

On to `c1ccc2c(-c3cocn3)c[nH]c2c1`, for which the IC50 in the assay on MCF7 was determined as 1000 µM; in the assay with LNCaP, 382 µM; in assay [1], 1000 µM; in the assay with PC-3, 321 µM; in the assay with MIA PaCa-2, 1000 µM; in the assay on DU-145, 93.5 µM.

As to `c1ccc2c(-c3coc(-c4ccncc4)n3)c[nH]c2c1`, the IC50 in the assay with MCF7 is 54.9 µM; in the assay with LNCaP it was 238 µM; in assay [1] it was 105 µM; in the assay on PC-3 it was 298 µM; in the assay with MIA PaCa-2 it was 38.4 µM; in the assay on DU-145 it was 178 µM.

In the case of `C(=C\c1nc(-c2c[nH]c3ccccc23)co1)/c1ccccc1`, the half-inhibitory concentration (IC50) came to 355 µM in the assay with MCF7; 183 µM with LNCaP; 1000 µM in assay [1]; 221 µM with PC-3; 872 µM in the assay with MIA PaCa-2; 135 µM with DU-145.

For the compound `COc1ccc(-c2nc(-c3c[nH]c4ccccc34)co2)cc1`, the IC50 in the assay with MCF7 was 43.8 µM; in the assay with LNCaP, 507 µM; in assay [1], 108 µM; in the assay with PC-3, 133 µM; in the assay on MIA PaCa-2, 35 µM; in the assay on DU-145, 164 µM.

Take `C=Cc1nc(-c2c[nH]c3ccccc23)co1`: the IC50 turned out to be 1000 µM with MCF7; 530 µM in the assay on LNCaP; 1000 µM in assay [1]; 426 µM in the assay with PC-3; 37.6 µM in the assay on MIA PaCa-2; 59.8 µM with DU-145.

As to `Cc1nc(-c2c[nH]c3ccccc23)co1`, the IC50 in the assay on MCF7 was found to be 802 µM; in the assay on LNCaP, 316 µM; in assay [1] it was 1000 µM; in the assay with PC-3 it was 337 µM; with MIA PaCa-2 it was 688 µM; in the assay on DU-145, 244 µM.

Regarding `COc1cc(-c2nc(-c3cn(C)c4ccccc34)co2)ccc1OCc1ccccc1`, the IC50 in the assay with MCF7 came out at 198 µM; in the assay with LNCaP, 368 µM; in assay [1], 1000 µM; in the assay on PC-3, 450 µM; in the assay on MIA PaCa-2 it was 318 µM; in the assay on DU-145 it was 382 µM.

`Clc1ccc(-c2nc(-c3c[nH]c4ccccc34)co2)cc1`: the IC50 in the assay with MCF7 was 410 µM; with LNCaP, 505 µM; in assay [1], 608 µM; in the assay with PC-3, 151 µM; with MIA PaCa-2 it was 326 µM; in the assay with DU-145, 206 µM.

On to `Clc1ccc(Cn2cc(-c3coc(-c4ccc(Cl)cc4)n3)c3ccccc32)cc1`, for which the IC50 in the assay on MCF7 amounted to 14.1 µM; with LNCaP, 182 µM; in assay [1], 216 µM; in the assay with PC-3, 350 µM; in the assay with MIA PaCa-2 it was 26 µM; in the assay on DU-145, 80.5 µM.

On to `c1ccc(Cc2nc(-c3c[nH]c4ccccc34)co2)cc1`, for which the half-maximal inhibitory concentration (IC50) in the assay on MCF7 was determined as 1000 µM; with LNCaP, 377 µM; in assay [1] it was 1000 µM; in the assay with PC-3, 368 µM; with MIA PaCa-2 it was 1000 µM; with DU-145 it was 349 µM.

Regarding `COc1ccc(-c2nc(-c3c[nH]c4ccccc34)co2)cc1OC`, the 50% inhibitory concentration (IC50) is 759 µM in the assay on MCF7; 278 µM with LNCaP; 1000 µM in assay [1]; 359 µM with PC-3; 1000 µM in the assay on MIA PaCa-2; 300 µM in the assay on DU-145.

As to `Cn1cc(-c2coc(C3CCNCC3)n2)c2ccccc21`, the IC50 in the assay on MCF7 came to 1000 µM; in the assay with LNCaP it was 400 µM; in assay [1], 1000 µM; in the assay with PC-3 it was 578 µM; with MIA PaCa-2, 759 µM; with DU-145, 376 µM.

Consider `Fc1ccc(-c2nc(-c3c[nH]c4ccccc34)co2)cc1`, for which the IC50 with MCF7 is 28 µM; with LNCaP, 59.8 µM; in assay [1], 90.4 µM; with PC-3, 42.8 µM; with MIA PaCa-2, 40.6 µM; with DU-145, 31.8 µM.

For the compound `Oc1ccc(-c2nc(-c3c[nH]c4ccccc34)co2)cc1`, the IC50 was 580 µM in the assay with MCF7; 449 µM with LNCaP; 1000 µM in assay [1]; 382 µM with PC-3; 1000 µM in the assay on MIA PaCa-2; 247 µM in the assay on DU-145.

As for `Cn1cc(-c2coc(-c3ccc(Cl)cc3)n2)c2ccccc21`, the IC50 in the assay on MCF7 came out at 637 µM; with LNCaP it was 378 µM; in assay [1], 790 µM; in the assay on PC-3 it was 302 µM; in the assay with MIA PaCa-2, 89.2 µM; in the assay on DU-145, 412 µM.
